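Exposure lasted 48 hours, with cells grown in 96-well plates and compounds tested at five concentrations. GI50: concentration for 50% inhibition of growth.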 Activity calls are given as the source filed them. Rule as the data show it: active = GI50 up to about 1.1 µM and inactive = higher.
Assays:
Assay in all cases: DTP human tumour cell line panel, 48 h
[1] = tested on: K562
[2] = tested on: HCT-116
[3] = tested on: SN12C
[4] = tested on: OVCAR-5
[5] = tested on: UO-31
[6] = tested on: MDA-N
[7] = tested on: 786-0
[8] = tested on: PC-3
[9] = tested on: TK-10
[10] = tested on: SF-268
[11] = tested on: OVCAR-8
[12] = tested on: HOP-62
[13] = tested on: EKVX
[14] = tested on: SNB-19
[15] = tested on: NCI-H522
[16] = tested on: Malme-3M
[17] = tested on: Hs-578T
[18] = tested on: HCT-15
[19] = tested on: NCI-H226

`Cn1c(Nc2ccccc2)c(/C=N\c2ccccc2)c(=O)n(C)c1=O` was tested, and the GI50 [1] was > 100 µM (inactive), the GI50 [2] was 48.2 µM (inactive) and the GI50 [3] was 69.3 µM (inactive). The GI50 [4] was > 100 µM (inactive), the GI50 [5] was 54.2 µM (inactive) and the GI50 [6] was > 100 µM (inactive). The GI50 [7] was 65.3 µM (inactive), the GI50 [8] was > 100 µM (inactive) and the GI50 [9] was > 100 µM (inactive). For the same compound, the GI50 [10] was 45.7 µM (inactive), the GI50 [11] was 39.7 µM (inactive) and the GI50 [12] was 22.5 µM (inactive).

With `O=c1ccn(Cc2ccccc2CCl)c(=O)[nH]1` the GI50 [1] was 34.8 µM (inactive), the GI50 [13] was 25.4 µM (inactive) and the GI50 [14] was 33.3 µM (inactive). The GI50 [15] was 20.4 µM (inactive), the GI50 [2] was 21.7 µM (inactive) and the GI50 [16] was 20.2 µM (inactive). The GI50 [3] was 27.6 µM (inactive), the GI50 [4] was 21.5 µM (inactive) and the GI50 [5] was 29.3 µM (inactive). The GI50 [17] was 29.2 µM (inactive), the GI50 [18] was 18.4 µM and the GI50 [7] was 20.7 µM (inactive). The GI50 [8] was 31.8 µM (inactive), the GI50 [9] was 39.1 µM (inactive) and the GI50 [10] was 25.7 µM (inactive). For the same compound, the GI50 [11] was 25.9 µM (inactive) and the GI50 [12] was 25.7 µM (inactive).

In the case of `CC1=CCC2CC1NC(=O)CCOCCC(=O)NC2(C)C` (stereo not given), the GI50 [19] is reported as > 100 µM (inactive), the GI50 [1] is reported as > 100 µM (inactive) and the GI50 [14] is reported as > 100 µM (inactive). The GI50 [15] was > 100 µM (inactive), the GI50 [2] was > 100 µM (inactive) and the GI50 [3] was > 100 µM (inactive). The GI50 [4] was > 100 µM (inactive), the GI50 [5] was > 100 µM (inactive) and the GI50 [6] was > 100 µM (inactive). For the same compound, the GI50 [18] was greater than 100 µM, the GI50 [7] was > 100 µM (inactive) and the GI50 [8] was > 100 µM (inactive). For the same compound, the GI50 [9] was > 100 µM (inactive), the GI50 [10] was > 100 µM (inactive) and the GI50 [11] was > 100 µM (inactive).

In the case of `CC(C)=NN/C=N\C(C#N)=C(/N)C#N`, the GI50 [19] is reported as > 100 µM (inactive), the GI50 [1] is reported as > 100 µM (inactive) and the GI50 [13] is reported as > 100 µM (inactive). The GI50 [14] was > 100 µM (inactive), the GI50 [15] was > 100 µM (inactive) and the GI50 [2] was 78.9 µM (inactive). For the same compound, the GI50 [16] was 69.2 µM (inactive), the GI50 [4] was > 100 µM (inactive) and the GI50 [5] was > 100 µM (inactive). The GI50 [18] was greater than 100 µM, the GI50 [7] was > 100 µM (inactive) and the GI50 [8] was > 100 µM (inactive). The GI50 [9] was > 100 µM (inactive), the GI50 [10] was > 100 µM (inactive) and the GI50 [11] was > 100 µM (inactive). For the same compound, the GI50 [12] was > 100 µM (inactive).

`Cc1cc(NC(=O)C(=O)Cc2cnc3ccccc3n2)c(S(=O)(=O)O)cc1Cl` was tested, and the GI50 [19] was > 100 µM (inactive), the GI50 [1] was > 100 µM (inactive) and the GI50 [13] was > 100 µM (inactive). The GI50 [14] was > 100 µM (inactive), the GI50 [15] was > 100 µM (inactive) and the GI50 [2] was > 100 µM (inactive). For the same compound, the GI50 [16] was > 100 µM (inactive), the GI50 [3] was > 100 µM (inactive) and the GI50 [4] was > 100 µM (inactive). The GI50 [5] was > 100 µM (inactive), the GI50 [17] was > 100 µM (inactive) and the GI50 [18] was greater than 100 µM. The GI50 [7] was > 100 µM (inactive), the GI50 [8] was > 100 µM (inactive) and the GI50 [9] was > 100 µM (inactive). The GI50 [10] was > 100 µM (inactive) and the GI50 [11] was > 100 µM (inactive).

With `COc1ccc2c(c1)OCc1c-2oc2ccccc2c1=O` the GI50 [19] was > 100 µM (inactive), the GI50 [1] was > 100 µM (inactive) and the GI50 [13] was > 100 µM (inactive). The GI50 [15] was > 100 µM (inactive), the GI50 [2] was > 100 µM (inactive) and the GI50 [16] was > 100 µM (inactive). The GI50 [3] was > 100 µM (inactive), the GI50 [4] was > 100 µM (inactive) and the GI50 [5] was > 100 µM (inactive). The GI50 [6] was > 100 µM (inactive), the GI50 [18] was greater than 100 µM and the GI50 [7] was 45.7 µM (inactive). For the same compound, the GI50 [8] was > 100 µM (inactive), the GI50 [9] was > 100 µM (inactive) and the GI50 [10] was 69.3 µM (inactive). For the same compound, the GI50 [11] was > 100 µM (inactive) and the GI50 [12] was 53.7 µM (inactive).

With `c1ccc(C(NC2CCCCC2NCCNC2CCCCC2NC(c2ccccc2)(c2ccccc2)c2ccccc2)(c2ccccc2)c2ccccc2)cc1` (stereo not given) the GI50 [1] was 44.5 µM (inactive), the GI50 [13] was 87.9 µM (inactive) and the GI50 [14] was 74.6 µM (inactive). For the same compound, the GI50 [15] was 14.6 µM (inactive), the GI50 [2] was 20.1 µM (inactive) and the GI50 [3] was > 100 µM (inactive). The GI50 [4] was > 100 µM (inactive), the GI50 [5] was 20.4 µM (inactive) and the GI50 [17] was 11.7 µM (inactive). The GI50 [18] was greater than 100 µM, the GI50 [8] was 64 µM (inactive) and the GI50 [9] was 90.4 µM (inactive). For the same compound, the GI50 [10] was 21.3 µM (inactive), the GI50 [11] was 29.9 µM (inactive) and the GI50 [12] was 34.1 µM (inactive).

`CCCCCCCCCCCCCCCCNc1ccn(C2CC(OP(=O)(O)OCC3OC(n4cc(CC)c(=O)[nH]c4=O)CC3O)C(CO)O2)c(=O)n1` (stereo not given) was tested, and the GI50 [19] was 47.2 µM (inactive), the GI50 [1] was 20.4 µM (inactive) and the GI50 [13] was 43 µM (inactive). For the same compound, the GI50 [14] was 16 µM (inactive), the GI50 [15] was 36.4 µM (inactive) and the GI50 [2] was 50.1 µM (inactive). For the same compound, the GI50 [3] was 41.5 µM (inactive), the GI50 [4] was 23.9 µM (inactive) and the GI50 [5] was 19.2 µM (inactive). For the same compound, the GI50 [17] was 22.1 µM (inactive), the GI50 [18] was 28.1 µM and the GI50 [7] was 83.2 µM (inactive). For the same compound, the GI50 [8] was 18.5 µM (inactive), the GI50 [9] was 77.3 µM (inactive) and the GI50 [10] was 15.3 µM (inactive). The GI50 [11] was 20 µM (inactive) and the GI50 [12] was 23.4 µM (inactive).

`CC1(C)OC[C@@H]([C@@]2(COC(c3ccccc3)(c3ccccc3)c3ccccc3)CC=CC(=O)O2)O1` was tested, and the GI50 [19] was 32.7 µM (inactive), the GI50 [1] was 32.8 µM (inactive) and the GI50 [13] was 30.9 µM (inactive). For the same compound, the GI50 [14] was 58.3 µM (inactive), the GI50 [15] was 18.4 µM (inactive) and the GI50 [2] was 30.3 µM (inactive). For the same compound, the GI50 [16] was 24.7 µM (inactive), the GI50 [3] was 30.8 µM (inactive) and the GI50 [4] was 42.9 µM (inactive). For the same compound, the GI50 [5] was 32.4 µM (inactive), the GI50 [17] was 46.9 µM (inactive) and the GI50 [18] was 31.1 µM. For the same compound, the GI50 [7] was 35.1 µM (inactive), the GI50 [8] was 41.3 µM (inactive) and the GI50 [9] was 46.5 µM (inactive). The GI50 [10] was 45.5 µM (inactive), the GI50 [11] was 33.6 µM (inactive) and the GI50 [12] was 38.5 µM (inactive).

With `COc1ccc(-c2cc(-c3ccc(Nc4ccnc5cc(Cl)ccc45)cc3)[nH]c(=O)c2C#N)cc1` the GI50 [19] was > 100 µM (inactive), the GI50 [1] was > 100 µM (inactive) and the GI50 [13] was > 100 µM (inactive). The GI50 [14] was 77.4 µM (inactive), the GI50 [15] was > 100 µM (inactive) and the GI50 [2] was > 100 µM (inactive). For the same compound, the GI50 [16] was > 100 µM (inactive), the GI50 [4] was > 100 µM (inactive) and the GI50 [5] was > 100 µM (inactive). The GI50 [17] was > 100 µM (inactive), the GI50 [18] was greater than 100 µM and the GI50 [7] was > 100 µM (inactive). The GI50 [8] was > 100 µM (inactive), the GI50 [9] was 72.4 µM (inactive) and the GI50 [10] was > 100 µM (inactive). The GI50 [11] was > 100 µM (inactive) and the GI50 [12] was 80 µM (inactive).

`CC(Oc1ccc(OCC2CCCCC2)cc1)C(=O)N(CCO)CCO` (stereo not given) was tested, and the GI50 [19] was > 100 µM (inactive), the GI50 [1] was > 100 µM (inactive) and the GI50 [14] was > 100 µM (inactive). For the same compound, the GI50 [15] was > 100 µM (inactive), the GI50 [2] was > 100 µM (inactive) and the GI50 [16] was > 100 µM (inactive). For the same compound, the GI50 [3] was > 100 µM (inactive), the GI50 [5] was > 100 µM (inactive) and the GI50 [18] was greater than 100 µM. The GI50 [7] was > 100 µM (inactive), the GI50 [9] was > 100 µM (inactive) and the GI50 [10] was > 100 µM (inactive). For the same compound, the GI50 [11] was > 100 µM (inactive).

`O=c1c2ccc(S(=O)(=O)c3ccc4c(=O)n5c6ccccc6nc5c5cccc3c45)c3cccc(c32)c2nc3ccccc3n12` was tested, and the GI50 [19] was 41.6 µM (inactive), the GI50 [13] was 43.9 µM (inactive) and the GI50 [14] was 16.6 µM (inactive). For the same compound, the GI50 [15] was 27.7 µM (inactive), the GI50 [2] was > 100 µM (inactive) and the GI50 [16] was > 100 µM (inactive). For the same compound, the GI50 [3] was > 100 µM (inactive), the GI50 [4] was > 100 µM (inactive) and the GI50 [5] was 39.9 µM (inactive). For the same compound, the GI50 [18] was 93.5 µM, the GI50 [7] was 29.5 µM (inactive) and the GI50 [8] was > 100 µM (inactive). For the same compound, the GI50 [9] was 21.8 µM (inactive), the GI50 [10] was 33.5 µM (inactive) and the GI50 [11] was 47.9 µM (inactive). The GI50 [12] was 37.8 µM (inactive).

Source: ChEMBL document CHEMBL1201862, “PubChem BioAssay data set” (2004)
